Reference: PMC13415951 (Journal of Experimental Botany, 2026)

Tests used:
[1] = system: roots of Brachypodium distachyon seedlings; experiment: Extracts from B. distachyon roots exposed to mycotoxin, LC-MS/MS; format: in vivo; conditions: 24 h; for D3G synthesis in the presence of CUL: 50 mg l^−1 DON, 10 mg l^−1 CUL
Description: Seedlings of Apogee and B. distachyon with roots 1–2 cm long were incubated in full-strength MS without sucrose and containing 50 mg l^−1 DON and/or either 50 mg l^−1 CUL (Apogee) or 10 mg l^−1 CUL (B. distachyon). The seedlings were placed into sterile 2 ml tubes containing 500 µl medium such that only the roots were submerged. After 24 h incubation under the same conditions as specified above for the elongation assays, the roots were cut from the seedlings, washed with 10% ethanol, briefly dried with tissue paper, and weighed. The roots were then ground in the Retsch Ball Mill MM 400 for 1 min at 30× s^−1 using two 5 mm steel balls, after which 500 µl methanol was added and the roots were extracted for 2 h at room temperature. The concentrations of DON, D3G, CUL, and CUL-glucosides were determined by LC-MS/MS.
DON, D3G, CUL, and CUL-glucosides were measured on a 6500+ QTrap MS/MS instrument (Sciex) coupled to an Agilent 1290 UHPLC system. A Kinetex C18 column (150×2.1 mm, 2.6 µm particle size; Phenomenex, Torrance, USA) was used for separation at 30 °C. Mobile phases consisted of mixtures of methanol and water (A, 10% MeOH; B, 97% MeOH) and both contained 5 mM ammonium acetate. A flow rate of 250 µl min^–1 and an injection volume of 1 µl were chosen. The gradient started with 0% B for 1.0 min and then increased linearly to 100% B at 8.5 min. The column was rinsed with 100% B for 3 min, before equilibration with the start conditions for another 3 min until the end of the run at 14.5 min. The switching valve of the mass spectrometer directed the eluent into the ion source between 3.0 min and 11.0 min. […] DON and D3G were detected in negative ion mode first, and after 4.5 min the polarity was changed to positive electrospray mode to detect CUL and CUL-glucosides. […] D3G was determined with the [M+CH3COO]^− ion as the precursor (DP −80 V) with the following SRM settings: m/z 517.2 > 427.1 (CE −30 eV) and m/z 517.2 > 59.1 (CE −85 eV). […]

[2] = system: B. distachyon line OE-10R14; set-up: species or system Brachypodium distachyon; conditions: in vivo
wheat coleoptile tissue = system: wheat coleoptile tissue; set-up: method as in Wang and Miller, 1988; conditions: ref Wang and Miller, 1988, cited from earlier work
BdUGT5g03300 = biological target: T1, BdUGT5g03300 (Brachypodium distachyon, UniProt I1IW79); experiment: biochemical
T1 sequence (I1IW79 1-469): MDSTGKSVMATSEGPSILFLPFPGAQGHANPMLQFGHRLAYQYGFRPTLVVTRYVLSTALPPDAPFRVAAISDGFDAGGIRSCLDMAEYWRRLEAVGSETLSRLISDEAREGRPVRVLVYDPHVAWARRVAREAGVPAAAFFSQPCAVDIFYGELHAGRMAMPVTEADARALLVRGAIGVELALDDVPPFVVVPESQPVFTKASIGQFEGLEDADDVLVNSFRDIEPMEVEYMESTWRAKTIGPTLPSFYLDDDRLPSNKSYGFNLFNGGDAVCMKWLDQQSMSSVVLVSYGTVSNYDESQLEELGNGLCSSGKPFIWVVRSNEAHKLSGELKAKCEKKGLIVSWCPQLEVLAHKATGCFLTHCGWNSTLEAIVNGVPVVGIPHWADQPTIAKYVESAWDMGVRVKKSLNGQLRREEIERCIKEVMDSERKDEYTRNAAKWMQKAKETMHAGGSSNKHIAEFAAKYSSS

HvUGT13248 [3] = biological target: T2, HvUGT13248 (Hordeum vulgare subsp. vulgare, UniProt M0Y4P1); experiment: biochemical; format: biochemical; set-up: made in house; host or cells: E. coli
T2 sequence (M0Y4P1 1-475): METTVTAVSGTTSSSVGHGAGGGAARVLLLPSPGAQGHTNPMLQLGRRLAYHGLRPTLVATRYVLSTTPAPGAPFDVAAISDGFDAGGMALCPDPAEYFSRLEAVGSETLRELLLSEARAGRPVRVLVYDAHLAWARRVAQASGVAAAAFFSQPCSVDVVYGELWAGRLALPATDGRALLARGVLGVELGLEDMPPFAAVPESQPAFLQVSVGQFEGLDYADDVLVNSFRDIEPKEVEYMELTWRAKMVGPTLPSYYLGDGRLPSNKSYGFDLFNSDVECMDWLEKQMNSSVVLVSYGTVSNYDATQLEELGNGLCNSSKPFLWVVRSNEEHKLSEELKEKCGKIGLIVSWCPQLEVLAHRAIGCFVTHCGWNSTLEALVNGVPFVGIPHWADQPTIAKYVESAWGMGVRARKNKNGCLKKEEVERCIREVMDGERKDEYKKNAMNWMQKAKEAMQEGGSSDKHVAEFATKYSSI

HvUGT13248 [4] = biological target: T2, HvUGT13248
[5] = read-out: Glucosylation rate of DON, percentage of the control

CC1(C)CCC[C@]2(C)[C@@H]3[C@H]1[C@@H](O)[C@@]2(C)C[C@H]3O [CUL, culmorin]
inhibition at 10 µg/mL ([1]; Brachypodium distachyon, OE-10R14 roots, 50 mg l^−1 DON with 10 mg l^−1 CUL, read-out: Reduction of D3G synthesis in the presence of CUL): ~58.6% | D3G synthesis in the presence of CUL ([1]; TILLING line 6829-3 (wild-type BdUGT5g03300 allele)): suppressed | D3G synthesis in the presence of CUL ([1]; TILLING mutant 6829-7 (BdUGT5g03300 W345*)): not further reduced | Effect of addition of CUL to 50 mg l^−1 DON on root length [2]: severe breakdown of resistance to DON | Phytotoxicity on wheat by itself (wheat coleoptile tissue; 10 µM CUL (∼3 mg l^−1)): no phytotoxicity | Phytotoxicity on wheat coleoptile tissue (wheat coleoptile tissue; 1000 µM CUL): phytotoxic effect | Specific activity (glucoside formation) (BdUGT5g03300): ≈ 1×10^−3 nmol min^−1 mg^−1 | Specific activity with CUL, fold below the value obtained with DON (BdUGT5g03300): ~1000 fold | Glucosylation rate of DON, percentage of the control (BdUGT5g03300; 25 µM): 0.84±0.03% | remaining activity at 25 µM (BdUGT5g03300; [5]): < 1% | remaining activity at 125 µM (BdUGT5g03300; [5]): 0.19 ± 0.01% | Increase of apparent KM of DON (HvUGT13248 [3]): ~10 fold | K iu of CUL (uncompetitive inhibition, UDP-glucose as variable substrate) (HvUGT13248 [3]): 91 µM | Ki (HvUGT13248 [3]): 56 µM | Specific activity (glucoside formation) (HvUGT13248 [4]): 6.94 ± 0.52 nmol/min/mg
